Test results: patent publication US20160158317A1, “Antimicrobial Peptide Variants and Polynucleotides Encoding Same” (Adenium Biotech A/S, priority 2010, published 2016)
Where a SMILES comes first, the peptide text is derived from it. Bridges are numbered along the chain shown (N, C = ends).

Assay: Determination of the protein binding (90% serum, 30 kDa filter, HPLC)
Format: in vitro ADME
Settings: serum
Procedure: Protein binding assays were performed as follows. The purified peptides were mixed with 90% serum and centrifuged through a 30 kDa filter. The ultra-filtrate and the non filtrated serum samples were quantified by HPLC measurements and the protein binding was subsequently calculated.

SMILES | fraction unbound
CC(C)[C@@H]1NC(=O)CNC(=O)CNC(=O)[C@H](CCCNC(=N)N)NC(=O)[C@H](Cc2ccc(O)cc2)NC(=O)[C@H](C(C)C)NC(=O)[C@@H]2CSSC[C@H](NC(=O)[C@H](C(C)C)NC(=O)[C@H](CCCNC(=N)N)NC1=O)C(=O)N[C@@H](Cc1c[nH]cn1)C(=O)N[C@@H](CCCNC(=N)N)C(=O)N[C@@H](CCCNC(=N)N)C(=O)N[C@H](C(=O)N[C@@H](CC(N)=O)C(=O)O)CSSC[C@H](NC(=O)[C@H](Cc1ccccc1)NC(=O)CN)C(=O)N[C@@H](Cc1c[nH]c3ccccc13)C(=O)N[C@@H](CC(N)=O)C(=O)N[C@@H](C(C)C)C(=O)N2 [compound 231] (H-GFCWNVCVYRGGVRVCHRRCN-OH; disulfide 3-20, 7-16 (inferred); N-terminus and C-terminus assumed) | 0.34
CC(C)[C@@H]1NC(=O)CNC(=O)[C@H](CC(N)=O)NC(=O)[C@H](CCCNC(=N)N)NC(=O)[C@H](Cc2ccc(O)cc2)NC(=O)[C@H](C(C)C)NC(=O)[C@@H]2CSSC[C@H](NC(=O)[C@H](CC(N)=O)NC(=O)[C@H](CCCNC(=N)N)NC1=O)C(=O)N[C@@H](Cc1c[nH]cn1)C(=O)N[C@@H](CCCNC(=N)N)C(=O)N[C@@H](CCCNC(=N)N)C(=O)N[C@H](C(=O)N[C@@H](CC(N)=O)C(=O)O)CSSC[C@H](NC(=O)[C@H](Cc1ccccc1)NC(=O)CN)C(=O)N[C@@H](Cc1c[nH]c3ccccc13)C(=O)N[C@@H](CC(N)=O)C(=O)N[C@@H](C(C)C)C(=O)N2 [compound 251] (H-GFCWNVCVYRNGVRNCHRRCN-OH; disulfide 3-20, 7-16 (inferred); N-terminus and C-terminus assumed) | 0.29
CC(C)[C@@H]1NC(=O)CNC(=O)[C@H](CC(N)=O)NC(=O)[C@H](CCCNC(=N)N)NC(=O)[C@H](Cc2ccc(O)cc2)NC(=O)[C@H](C(C)C)NC(=O)[C@@H]2CSSC[C@H](NC(=O)[C@H](Cc3c[nH]cn3)NC(=O)[C@H](CCCNC(=N)N)NC1=O)C(=O)N[C@@H](Cc1ccc(O)cc1)C(=O)N[C@@H](CCCNC(=N)N)C(=O)N[C@@H](CCCNC(=N)N)C(=O)N[C@H](C(=O)N[C@@H](CC(N)=O)C(=O)O)CSSC[C@H](NC(=O)[C@H](Cc1ccccc1)NC(=O)CN)C(=O)N[C@@H](Cc1c[nH]c3ccccc13)C(=O)N[C@@H](Cc1ccc(O)cc1)C(=O)N[C@@H](C(C)C)C(=O)N2 [compound 39] (H-GFCWYVCVYRNGVRHCYRRCN-OH; disulfide 3-20, 7-16 (inferred); N-terminus and C-terminus assumed) | 0.02
CC(C)[C@@H]1NC(=O)CNC(=O)[C@H](CC(N)=O)NC(=O)[C@H](CCCNC(=N)N)NC(=O)[C@H](Cc2ccc(O)cc2)NC(=O)[C@H](C(C)C)NC(=O)[C@@H]2CSSC[C@H](NC(=O)[C@H]([C@@H](C)O)NC(=O)[C@H](CCCNC(=N)N)NC1=O)C(=O)N[C@@H](Cc1ccc(O)cc1)C(=O)N[C@@H](CCCNC(=N)N)C(=O)N[C@@H](CCCNC(=N)N)C(=O)N[C@H](C(=O)N[C@@H](CC(N)=O)C(=O)O)CSSC[C@H](NC(=O)[C@H](Cc1ccccc1)NC(=O)CN)C(=O)N[C@@H](Cc1ccc(O)cc1)C(=O)N[C@@H](CCCNC(=N)N)C(=O)N[C@@H](C(C)C)C(=O)N2 [compound 209] (H-GFCYRVCVYRNGVRTCYRRCN-OH; disulfide 3-20, 7-16 (inferred); N-terminus and C-terminus assumed) | 0.11
CC(C)[C@@H]1NC(=O)CNC(=O)[C@H](CC(N)=O)NC(=O)[C@H](CCCNC(=N)N)NC(=O)[C@H](Cc2ccc(O)cc2)NC(=O)[C@H](C(C)C)NC(=O)[C@@H]2CSSC[C@H](NC(=O)[C@H](CCCNC(=N)N)NC(=O)[C@H](CCCNC(=N)N)NC1=O)C(=O)N[C@@H](Cc1ccc(O)cc1)C(=O)N[C@@H](CCCNC(=N)N)C(=O)N[C@@H](CCCNC(=N)N)C(=O)N[C@H](C(=O)N[C@@H](CC(N)=O)C(=O)O)CSSC[C@H](NC(=O)[C@H](Cc1ccccc1)NC(=O)CN)C(=O)NCC(=O)N[C@@H](CCCNC(=N)N)C(=O)N[C@@H](C(C)C)C(=O)N2 [compound 170] (H-GFCGRVCVYRNGVRRCYRRCN-OH; disulfide 3-20, 7-16 (inferred); N-terminus and C-terminus assumed) | 0.13
CC(C)[C@@H]1NC(=O)CNC(=O)[C@H](CC(N)=O)NC(=O)[C@H](CCCNC(=N)N)NC(=O)[C@H](Cc2ccc(O)cc2)NC(=O)[C@H](C(C)C)NC(=O)[C@@H]2CSSC[C@H](NC(=O)[C@H](Cc3c[nH]c4ccccc34)NC(=O)[C@H](CCCNC(=N)N)NC1=O)C(=O)N[C@@H](Cc1c[nH]cn1)C(=O)N[C@@H](CCCNC(=N)N)C(=O)N[C@@H](CCCNC(=N)N)C(=O)N[C@H](C(=O)N[C@@H](CC(N)=O)C(=O)O)CSSC[C@H](NC(=O)[C@H](Cc1ccccc1)NC(=O)CN)C(=O)N[C@@H](Cc1c[nH]c3ccccc13)C(=O)N[C@@H](CC(N)=O)C(=O)N[C@@H](C(C)C)C(=O)N2 [compound 253] (H-GFCWNVCVYRNGVRWCHRRCN-OH; disulfide 3-20, 7-16 (inferred); N-terminus and C-terminus assumed) | 0.06
CC(C)C[C@@H]1NC(=O)CNC(=O)[C@H](CC(N)=O)NC(=O)[C@H](CCCNC(=N)N)NC(=O)[C@H](CCCNC(=N)N)NC(=O)[C@H](C)NC(=O)[C@@H]2CSSC[C@H](NC(=O)[C@H](CO)NC(=O)[C@H](CCCNC(=N)N)NC1=O)C(=O)N[C@@H](Cc1ccc(O)cc1)C(=O)N[C@@H](CCCNC(=N)N)C(=O)N[C@@H](CCCNC(=N)N)C(=O)N[C@H](C(=O)N[C@@H](CC(N)=O)C(=O)O)CSSC[C@H](NC(=O)[C@H](Cc1ccccc1)NC(=O)CN)C(=O)N[C@@H](Cc1c[nH]c3ccccc13)C(=O)N[C@@H](Cc1ccc(O)cc1)C(=O)N[C@@H](C(C)C)C(=O)N2 [compound 453] (H-GFCWYVCARRNGLRSCYRRCN-OH; disulfide 3-20, 7-16 (inferred); N-terminus and C-terminus assumed) | 0.08
CC(C)[C@@H]1NC(=O)[C@@H]2CSSC[C@H](NC(=O)[C@H](C)NC(=O)[C@H](CCCNC(=N)N)NC(=O)[C@H](CCCCN)NC(=O)CNC(=O)[C@H](CC(N)=O)NC(=O)[C@H](CCCCN)NC(=O)[C@H](Cc3ccc(O)cc3)NC1=O)C(=O)N[C@@H](Cc1ccc(O)cc1)C(=O)N[C@@H](CCCNC(=N)N)C(=O)N[C@@H](CCCNC(=N)N)C(=O)N[C@H](C(=O)N[C@@H](CC(N)=O)C(=O)O)CSSC[C@H](NC(=O)[C@H](Cc1ccccc1)NC(=O)CN)C(=O)NCC(=O)N[C@@H](CCCNC(=N)N)C(=O)N[C@@H](C(C)C)C(=O)N2 [compound 493] (H-GFCGRVCVYKNGKRACYRRCN-OH; disulfide 3-20, 7-16 (inferred); N-terminus and C-terminus assumed) | 0.23
CC(C)[C@@H]1NC(=O)[C@@H]2CSSC[C@H](NC(=O)[C@H](C(C)C)NC(=O)[C@H](CCCNC(=N)N)NC(=O)[C@H](C(C)C)NC(=O)[C@H](CCCNC(=N)N)NC(=O)[C@H](CC(N)=O)NC(=O)[C@H](CCCNC(=N)N)NC(=O)[C@H](Cc3ccc(O)cc3)NC1=O)C(=O)N[C@@H](Cc1c[nH]cn1)C(=O)N[C@@H](CCCNC(=N)N)C(=O)N[C@@H](CCCNC(=N)N)C(=O)N[C@H](C(=O)N[C@@H](CC(N)=O)C(=O)O)CSSC[C@H](NC(=O)[C@H](Cc1ccccc1)NC(=O)CN)C(=O)N[C@@H](Cc1c[nH]c3ccccc13)C(=O)N[C@@H](CC(N)=O)C(=O)N[C@@H](C(C)C)C(=O)N2 [compound 228] (H-GFCWNVCVYRNRVRVCHRRCN-OH; disulfide 3-20, 7-16 (inferred); N-terminus and C-terminus assumed) | 0.14
CC(C)[C@@H]1NC(=O)CNC(=O)[C@H](CC(N)=O)NC(=O)[C@H](CCCNC(=N)N)NC(=O)[C@H](CCCCN)NC(=O)[C@H](C(C)C)NC(=O)[C@@H]2CSSC[C@H](NC(=O)[C@H](C(C)C)NC(=O)[C@H](CCCNC(=N)N)NC1=O)C(=O)N[C@@H](Cc1ccc(O)cc1)C(=O)N[C@@H](CCCNC(=N)N)C(=O)N[C@@H](CCCNC(=N)N)C(=O)N[C@H](C(=O)N[C@@H](CC(N)=O)C(=O)O)CSSC[C@H](NC(=O)[C@H](Cc1ccccc1)NC(=O)CN)C(=O)N[C@@H](Cc1c[nH]c3ccccc13)C(=O)N[C@@H](CC(N)=O)C(=O)N[C@@H](C)C(=O)N2 [compound 258] (H-GFCWNACVKRNGVRVCYRRCN-OH; disulfide 3-20, 7-16 (inferred); N-terminus and C-terminus assumed) | 0.11
CC(C)[C@@H]1NC(=O)CNC(=O)[C@H](CC(N)=O)NC(=O)[C@H](CCCNC(=N)N)NC(=O)[C@H](Cc2ccc(O)cc2)NC(=O)[C@H](Cc2ccccc2)NC(=O)[C@@H]2CSSC[C@H](NC(=O)[C@H](C(C)C)NC(=O)[C@H](CCCNC(=N)N)NC1=O)C(=O)N[C@@H](Cc1c[nH]cn1)C(=O)N[C@@H](CCCNC(=N)N)C(=O)N[C@@H](CCCNC(=N)N)C(=O)N[C@H](C(=O)N[C@@H](CC(N)=O)C(=O)O)CSSC[C@H](NC(=O)[C@H](Cc1ccccc1)NC(=O)CN)C(=O)N[C@@H](Cc1c[nH]c3ccccc13)C(=O)N[C@@H](CC(N)=O)C(=O)N[C@@H](C(C)C)C(=O)N2 [compound 272] (H-GFCWNVCFYRNGVRVCHRRCN-OH; disulfide 3-20, 7-16) | 0.26
CC(C)[C@@H]1NC(=O)CNC(=O)[C@H](CC(N)=O)NC(=O)[C@H](CCCNC(=N)N)NC(=O)[C@H](Cc2ccc(O)cc2)NC(=O)[C@H](C(C)C)NC(=O)[C@@H]2CSSC[C@H](NC(=O)[C@H](CO)NC(=O)[C@H](CCCNC(=N)N)NC1=O)C(=O)N[C@@H](Cc1c[nH]cn1)C(=O)N[C@@H](CCCNC(=N)N)C(=O)N[C@@H](CCCNC(=N)N)C(=O)N[C@H](C(=O)N[C@@H](CC(N)=O)C(=O)O)CSSC[C@H](NC(=O)[C@H](Cc1ccccc1)NC(=O)CN)C(=O)N[C@@H](Cc1c[nH]c3ccccc13)C(=O)N[C@@H](CCCNC(=N)N)C(=O)N[C@@H](C(C)C)C(=O)N2 [compound 316] (H-GFCWRVCVYRNGVRSCHRRCN-OH; disulfide 3-20, 7-16 (inferred); N-terminus and C-terminus assumed) | 0.1
